One series deals with T1, LBD of PPARδ protein (Homo sapiens, UniProt Q03181).
T1 construct: co-transfection of a plasmid containing an LBD/Gal4 fusion construct; expressed in transfected cells; host or cells: U2-OS (human bone cancer line)
T1 sequence (Q03181 211-439 limits assumed): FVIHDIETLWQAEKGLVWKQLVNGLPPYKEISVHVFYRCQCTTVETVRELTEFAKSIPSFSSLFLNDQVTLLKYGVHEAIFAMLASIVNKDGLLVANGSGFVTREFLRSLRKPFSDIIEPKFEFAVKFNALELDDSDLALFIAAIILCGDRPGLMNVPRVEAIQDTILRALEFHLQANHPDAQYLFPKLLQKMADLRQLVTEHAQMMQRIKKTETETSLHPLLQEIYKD
Put plainly: PPARδ ligand-binding domain (LBD)/Gal4 UAS-tk-luciferase reporter assay in U2-OS cells. Format: cell-based. As to conditions: from GAL-4 binding and PPRE transactivation reporter screens. As to the method: (§1) General Testing Procedures. Each ligand was screened for PPARδ binding and transactivation activity through the use of two complementary reporter assays as described below. In both systems, transfection efficiency was standardized by co-transfection of a control Renilla luciferase. U2-OS (human bone cancer line) cells were used for both assays because this is the cell line of choice for screening PPAR ligands. At 18 h post-transfection, GW 501, with and without the ligands of the disclosure, was added to the cells and incubated for an additional 24 h. The cells were then harvested and luciferase activities profiled.
A PPARδ protein ligand-binding domain (LBD) assay. The LBD assay consists of cellular co-transfection of a plasmid containing an LBD/Gal4 fusion construct and a vector containing a UAS-tk-luciferase reporter construct under the transcriptional control of a Gal4 upstream activating sequence. This system was used to test for binding activities of candidate PPARδ ligands to the LBD of PPARδ protein.
(§2) Referring to FIG. 3, U2-OS cells were transiently transfected with appropriate expression and reporter vectors. Ligands were added to the cell cultures 24 h post-transfection and incubated for an additional 16 h. Lipoprotein lipase (LPL; 2 μg/ml) was added with VLDL (5 μg/ml) to release PPARδ-active triglycerides. FIG. 3A: PPARδ LBD/Gal4/UAS-tk-luc competition assays with VLDL SR13904 (0-10 μM). The reporter activation (fold increase over blank) is presented relative to GW501516 at 7 nM (fold increase over blank=100). FIG. 3B: PPRE reporter assays using 0, 1, and 10 μM SR13904+VLDL. All assays were repeated in triplicate.

Another series deals with T2, PPARδ (Homo sapiens, UniProt Q03181).
T2 construct: expressed in transfected cells; host or cells: U2-OS (human bone cancer line)
T2 sequence (Q03181 1-441): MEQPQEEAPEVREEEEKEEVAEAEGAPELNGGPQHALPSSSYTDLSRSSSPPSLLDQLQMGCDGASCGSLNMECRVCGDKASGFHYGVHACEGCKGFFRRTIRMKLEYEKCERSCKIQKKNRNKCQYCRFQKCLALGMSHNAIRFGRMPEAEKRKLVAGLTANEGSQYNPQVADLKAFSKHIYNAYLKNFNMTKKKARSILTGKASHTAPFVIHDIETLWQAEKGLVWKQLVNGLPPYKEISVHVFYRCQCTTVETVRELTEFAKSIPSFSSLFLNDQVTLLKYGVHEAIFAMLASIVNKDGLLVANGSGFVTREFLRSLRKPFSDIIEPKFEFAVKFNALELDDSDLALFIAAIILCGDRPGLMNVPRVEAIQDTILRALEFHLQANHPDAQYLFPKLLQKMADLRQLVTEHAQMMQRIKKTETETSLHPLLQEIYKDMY
Put plainly: PPRE promoter/luciferase reporter (transactivation) assay in U2-OS cells. In kind it is cell-based. As to the method: as §1
A promoter/luciferase reporter assay. This assay involves co-transfection of a PPARδ expression vector and a plasmid containing a luciferase gene under the control of PPARδ responsive DNA element (three copies of a consensus PPAR response element, PPRE). This assay was used to directly test ligand effects on PPARδ-responsive genes.
as §2

Series [1] addresses T3, ligand binding domain of PPAR delta (Homo sapiens, UniProt Q03181).
T3 construct: purchased Invitrogen
T3 sequence (Q03181 211-439 limits assumed): T1 sequence (Q03181 211-439 limits assumed)
Nature of the series: LANTHA SCREEN TR-FRET PPARδ Competitive Binding Assay. On the procedure: (§3) The LANTHA SCREEN™ TR-FRET PPARδ Competitive Binding Assay was conducted for a variety of compounds according to the instructions provided by the manufacturer (Invitrogen). In addition, proliferation assays were conducted. In Table 2, “Prolif IC50” is the concentration that inhibits cell viability (or growth) by 50% relative to a vehicle control, and “TR-F binding IC50 (μM)” is the concentration that competes binding by a labeled pan-agonist to the ligand binding domain of PPAR delta, by 50%.

A short description of series [2]: Proliferation assay of Table 2 (cell line not stated). Format: cell-based. As to conditions: concentration that inhibits cell viability (or growth) by 50% relative to vehicle control; read-out: Prolif IC50. As to the method: as §3
The test system of a further series is A549 cells. Nature of the series: Apoptosis, Cell Death Detection ELISA (DNA fragmentation) in A549 cells. In kind it is cell-based, human. The note with it: A549, GW501 1 μM with SR13904 15 μM. On the procedure: Referring now to FIG. 6, SR13904 treatment of cancer cells results in increased apoptosis. A549 cells (2×10^4 cells/well) were incubated in 0.5% media (96 well plates) SR13904 for 40 h. The relative degrees of apoptosis were determined using a Cell Death Detection ELISA (Roche). SR represents SR13904. ***p=<0.001 SR vs. SR+GW501.
SR13904 treatment results in increased apoptosis. Down-regulation of PPARδ, either by genetic knockout or by the treatment with 13-S—HODE (15-lipoxygenase-1 product), induces apoptosis in colorectal cancer cells. The effects of SR13904 (15 μM) GW501 (1 μM) on survival of A549 cells (0.5% serum) was determined. Relative degrees of apoptosis were measured using a DNA fragmentation assay.

Series [3] is described as follows: Solubility in DMSO (noted in binding assay column). Format: physicochemical.
Where [4] appears, read: competes binding by a labeled pan-agonist by 50%, * = determined by approximation from a semi log graph, read-out: TR-F binding IC50.

SMILES strings stand for the structures. Where two headings read alike, the source gives them in different places. A value given as a limit tells only on which side of the number the result lay.

For `CCCc1cc(SCc2sc(-c3ccc(C(C)(C)C)cc3)nc2C)ccc1OCC(=O)O` [SR 13907], the “PPARδ ligand profile (agonist/antagonist)” value on LBD of PPARδ protein is “low-affinity agonists”. Also, the “inhibition of PPARδ-mediated transactivation” value at PPARδ is reported as “appear to inhibit”.
Turning to `Cc1cc(SCCOC(c2ccc(F)cc2)c2ccc(F)cc2)ccc1OCC(=O)O` [SRI-010249], the IC50 in series [1] (setting [4]) was found to be 0.85 µM; in series [1] (repeat determination of TR-F binding IC50, read-out: repeat TR-F) it was 1.2 µM; in series [2], 5.4 µM.
Regarding `Cc1cc(SCCN2c3ccccc3Sc3ccccc32)ccc1OCC(=O)O` [SRI-010251], the figures for the IC50 in series [1] (setting [4]) and in series [2] were 13.7 µM and 7.6 µM, respectively.
For `Cc1cc(SCCOC(c2ccccc2)c2ccccc2)ccc1OCC(=O)O` [SRI-010253] the same measures were 3 µM and 14 µM.
The corresponding values for `Cc1cc(SCCN2c3ccccc3Sc3ccc(C(F)(F)F)cc32)ccc1OCC(=O)O` [SRI-010250] are 3.8 µM and 7 µM.
For `COc1ccc(CN(C(=O)CCSc2ccc(OCC(=O)O)c(C)c2)C(c2ccccc2)c2ccccc2)cc1OC` [SRI-010265] the same measures were above 30 µM and above 40 µM.
On to `Cc1cc(SCc2sc(-c3ccc(C(F)(F)F)cc3)nc2C)ccc1OCC(=O)O` [GW 501516, reference compound], for which the “effect of co-treatment on SR13904-induced apoptosis” value in the series on A549 cells was “markedly alleviated”.
Turning to `COc1ccc(CN(C(=O)CSc2ccc(OCC(=O)O)c(C)c2)C(c2ccccc2)c2ccccc2)cc1OC` [SRI-010259], the IC50 is above 30 µM in series [1] (setting [4]) and above 40 µM in series [2].
As for `CCCc1cc(SCc2sc(-c3cccc4ccccc34)nc2C)ccc1OCC(=O)O` [SR 13905], the “inhibition of PPARδ-mediated transactivation” value on PPARδ was “appear to inhibit”.
For the compound `Cc1cc(SCCC(=O)N(Cc2ccc(Cl)cc2Cl)C(c2ccccc2)c2ccccc2)ccc1OCC(=O)O` [SRI-010264], the IC50 in series [1] (setting [4]) was above 25 µM; in series [2], 5.9 µM.
`CCCc1cc(SCc2sc(-c3ccc(CC)cc3)nc2C)ccc1OCC(N)=O` [SR 13910]: the “PPARδ ligand profile (agonist/antagonist)” value at LBD of PPARδ protein is recorded as “low-affinity agonists”.
On to `Cc1cc(SCCC(=O)NC(c2ccccc2)c2ccccc2)ccc1OCC(=O)O` [SRI-010266], for which the IC50 was above 30 µM in series [1] (setting [4]) and above 40 µM in series [2].
For the compound `Cc1cc(SCc2sc(-c3ccc(C(C)(C)C)cc3)nc2C)ccc1OCC(=O)O` [SR 13906], at LBD of PPARδ protein, the “PPARδ ligand profile (agonist/antagonist)” value is listed as “low-affinity agonists”. Besides, the “inhibition of PPARδ-mediated transactivation” value at PPARδ is “appear to inhibit”.
In the case of `Cc1cc(SCC(=O)N(Cc2ccc(Cl)cc2Cl)C(c2ccccc2)c2ccccc2)ccc1OCC(=O)O` [SRI-010258], the IC50 in series [1] (setting [4]) was above 14 µM; in series [2], 4.8 µM.
In the case of `Cc1cc(SCC(=O)NC(c2ccccc2)c2ccccc2)ccc1OCC(=O)O` [SRI-010260], the IC50 in series [2] is above 40 µM. Besides, the “solubility in DMSO” value in series [3] is given as “not soluble in DMSO”.
As to `Cc1cc(SCCOC2c3ccccc3-c3ccccc32)ccc1OCC(=O)O` [SRI-010248], the IC50 in series [1] (setting [4]) was above 30 µM; in series [2] it was 9 µM.
For `Cc1cc(SCC(=O)N(Cc2ccc(F)c(F)c2)C(c2ccccc2)c2ccccc2)ccc1OCC(=O)O` [SRI-010257] the same measures were above 23 µM and 9.1 µM.
The corresponding values for `Cc1cc(SCCC(=O)N(Cc2ccc(Cl)cc2)C(c2ccccc2)c2ccccc2)ccc1OCC(=O)O` [SRI-010262] are above 18 µM and 5.6 µM.
The corresponding values for `Cc1cc(SCC(=O)N(Cc2ccccc2)C(c2ccccc2)c2ccccc2)ccc1OCC(=O)O` [SRI-010255] are above 12 µM and 5 µM.
Regarding `Cc1cc(SCCC(=O)N(Cc2ccccc2)C(c2ccccc2)c2ccccc2)ccc1OCC(=O)O` [SRI-010261], the IC50 in series [1] (setting [4]) is above 20 µM; in series [2], 8.5 µM.
On to `Cc1cc(SCC(=O)N(Cc2ccc(Cl)cc2)C(c2ccccc2)c2ccccc2)ccc1OCC(=O)O` [SRI-010256], for which the IC50 in series [1] (setting [4]) was above 18 µM.
On to `Cc1cc(SCCOC(c2ccccc2)c2ccc(C(F)(F)F)cc2)ccc1OCC(=O)O` (stereo not shown) [SRI-010254], for which the IC50 in series [1] (setting [4]) was found to be 1.3 µM; in series [2], 7.4 µM.
For `Cc1cc(SCCn2c3ccccc3c3ccccc32)ccc1OCC(=O)O` [SRI-010252] the same measures were above 30 µM and 9 µM.
For `Cc1cc(SCCC(=O)N(Cc2ccc(F)c(F)c2)C(c2ccccc2)c2ccccc2)ccc1OCC(=O)O` [SRI-010263] the same measures were above 25 µM and 9.1 µM.
On to `Cc1cc(SCc2sc(-c3ccc4ccccc4c3)nc2C)ccc1OCC(=O)O` [SR 13961], for which, on LBD of PPARδ protein, the “PPARδ ligand profile (agonist/antagonist)” value is on record as “low-affinity agonists”.

The record behind these values is patent publication US20090163481A1, “PPAR-DELTA LIGANDS AND METHODS OF THEIR USE” (priority 2007, published 2009).
